Read-outs that look alike come from different tables or passages of the source.
What was measured:
CSF1R = CSF1R (Homo sapiens, UniProt P07333); test: Competition binding assay, CSF1R Kd; design: made in house
Outline: (§1)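 Kinases as T7-phage fusions or HEK-293-expressed DNA-tagged constructs competed against immobilized biotinylated ligand on streptavidin beads, 1 h at room temperature in binding buffer. Bound kinase eluted and quantified by qPCR; Kd from eleven-point threefold dilution series.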

PDGFRβ = target: T1, PDGFRβ (Homo sapiens, UniProt P09619); test: Competition binding assay, PDGFRβ Kd
T1 construct: made in house
Outline: as §1

KIT = target: T2, KIT (Homo sapiens, UniProt P10721); test: Competition binding assay, KIT Kd
T2 construct: made in house
Outline: as §1

[1] = target: kinase panel containing either 386 or 392 distinct kinases; test: Kinase selectivity score S10 from competition binding panel
Description: Competition binding assays used herein were developed, validated and performed as described in Fabian et al., Nature Biotechnology 2005, 23, 329-336. Kinases were produced as fusions to T7 phage (See, Fabian et al. or WO04/015142) or alternatively, the kinases were expressed in HEK-293 cells and subsequently tagged with DNA for PCR detection (See, WO08/005310). For the binding assays, streptavidin-coated magnetic beads were treated with biotinylated affinity ligands for 30 min at room temperature to generate affinity resins. The liganded beads were blocked with excess biotin and washed with blocking buffer (SeaBlock (Pierce), 1% BSA, 0.05% Tween 20, 1 mM DTT) to remove unbound ligand and to reduce non-specific binding. Binding reactions were assembled by combining kinase, liganded affinity beads, and test compounds in 1× binding buffer (20% SeaBlock, 0.17×PBS, 0.05% Tween 20, 6 mM DTT). Test compounds were prepared as 100× stocks in DMSO and diluted into the aqueous environment. Kds were determined using an eleven point threefold serial dilutions. DMSO or control compounds were was added to control assays lacking a test compound. Primary screen assays were performed in polypropylene 384-well plates in a final volume of 20-40 μL, while Kd determinations were performed in polystyrene 96-well plates in a final volume of 135 μL. The assay plates were incubated at room temperature with shaking for 1 hour to allow the binding reactions to reach equilibrium, and the affinity beads were washed extensively with wash buffer (1×PBS, 0.05% Tween 20) to remove unbound protein. The beads were then resuspended in elution buffer (1×PBS, 0.05% Tween […] non-biotinylated affinity ligand) and incubated at room temperature with shaking for 30 min. The kinase concentration in the eluates was measured by quantitative PCR.
A selectivity score (S10) is a quantitative measure of selectivity of a compound against a panel of kinases. An S10 was calculated for a compound by dividing the number of kinases found to have a percent of control (DMSO) less than 10 by the total number of distinct kinases tested (excluding mutant variants). Percent of control (POC) is calculated by subtracting the signal of the control compound (POC=0) from the signal of the test compound and dividing the outcome by the signal of DMSO (POC=100) minus the signal of the control compound. For the compounds disclosed herein, S10 scores were obtained by testing the compounds at 10 μM concentration in a kinase panel containing either 386 or 392 distinct kinases.

M-NFS-60 cells = test: M-NFS-60 cell proliferation assay (Alamar Blue); type: cell-based, mouse; conditions: Mus musculus, read-out: CSF1R M-NFS-60 CTB:IC50
Outline: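 Alamar Blue reduction (3 h; 560/590 nm) measured viability after 72 h, 37 °C treatment with nine half-log compound concentrations at 0.5% DMSO. Cells: M-CSF-dependent (20 ng/mL) murine M-NFS-60 in RPMI plus 10% FBS. IC50s, averaged from duplicates, reflect half-maximal inhibition of proliferation relative to control.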

FLT3 = target: T3, FLT3 (Homo sapiens, UniProt P36888); test: Competition binding assay, FLT3 Kd
T3 construct: made in house
T3 sequence (P36888 27-993): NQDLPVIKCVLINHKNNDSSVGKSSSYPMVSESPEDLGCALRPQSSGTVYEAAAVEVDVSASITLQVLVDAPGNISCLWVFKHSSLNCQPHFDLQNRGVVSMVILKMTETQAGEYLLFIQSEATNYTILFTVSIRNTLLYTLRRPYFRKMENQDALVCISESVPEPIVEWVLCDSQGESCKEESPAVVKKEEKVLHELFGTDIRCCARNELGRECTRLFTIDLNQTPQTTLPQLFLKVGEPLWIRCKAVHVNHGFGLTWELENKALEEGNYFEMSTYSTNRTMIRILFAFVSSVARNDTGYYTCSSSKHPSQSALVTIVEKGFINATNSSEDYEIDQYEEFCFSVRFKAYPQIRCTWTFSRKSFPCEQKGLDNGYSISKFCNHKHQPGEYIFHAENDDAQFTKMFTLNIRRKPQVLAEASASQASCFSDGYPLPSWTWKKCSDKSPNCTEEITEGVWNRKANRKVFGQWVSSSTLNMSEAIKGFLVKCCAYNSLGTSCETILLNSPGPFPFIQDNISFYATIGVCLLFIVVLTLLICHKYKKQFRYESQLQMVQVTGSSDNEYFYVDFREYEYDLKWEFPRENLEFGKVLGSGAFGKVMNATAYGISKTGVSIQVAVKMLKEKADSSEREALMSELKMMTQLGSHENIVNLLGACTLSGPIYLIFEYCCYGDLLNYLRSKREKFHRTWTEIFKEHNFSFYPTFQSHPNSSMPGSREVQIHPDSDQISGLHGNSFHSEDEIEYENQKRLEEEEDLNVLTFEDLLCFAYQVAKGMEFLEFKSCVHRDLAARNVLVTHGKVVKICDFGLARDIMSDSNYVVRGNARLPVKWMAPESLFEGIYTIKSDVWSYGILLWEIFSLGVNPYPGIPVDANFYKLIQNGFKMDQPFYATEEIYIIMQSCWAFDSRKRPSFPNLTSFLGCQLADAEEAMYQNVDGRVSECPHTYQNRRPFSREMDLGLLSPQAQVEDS
Outline: as §1

[2] = compounds at 10 μM, 386 or 392 distinct kinases
[3] = 72 hours incubation, M-CSF 20 ng/mL
[4] = 10 μM, panel of 386 or 392 distinct kinases

T1 sequence (P09619 33-1106): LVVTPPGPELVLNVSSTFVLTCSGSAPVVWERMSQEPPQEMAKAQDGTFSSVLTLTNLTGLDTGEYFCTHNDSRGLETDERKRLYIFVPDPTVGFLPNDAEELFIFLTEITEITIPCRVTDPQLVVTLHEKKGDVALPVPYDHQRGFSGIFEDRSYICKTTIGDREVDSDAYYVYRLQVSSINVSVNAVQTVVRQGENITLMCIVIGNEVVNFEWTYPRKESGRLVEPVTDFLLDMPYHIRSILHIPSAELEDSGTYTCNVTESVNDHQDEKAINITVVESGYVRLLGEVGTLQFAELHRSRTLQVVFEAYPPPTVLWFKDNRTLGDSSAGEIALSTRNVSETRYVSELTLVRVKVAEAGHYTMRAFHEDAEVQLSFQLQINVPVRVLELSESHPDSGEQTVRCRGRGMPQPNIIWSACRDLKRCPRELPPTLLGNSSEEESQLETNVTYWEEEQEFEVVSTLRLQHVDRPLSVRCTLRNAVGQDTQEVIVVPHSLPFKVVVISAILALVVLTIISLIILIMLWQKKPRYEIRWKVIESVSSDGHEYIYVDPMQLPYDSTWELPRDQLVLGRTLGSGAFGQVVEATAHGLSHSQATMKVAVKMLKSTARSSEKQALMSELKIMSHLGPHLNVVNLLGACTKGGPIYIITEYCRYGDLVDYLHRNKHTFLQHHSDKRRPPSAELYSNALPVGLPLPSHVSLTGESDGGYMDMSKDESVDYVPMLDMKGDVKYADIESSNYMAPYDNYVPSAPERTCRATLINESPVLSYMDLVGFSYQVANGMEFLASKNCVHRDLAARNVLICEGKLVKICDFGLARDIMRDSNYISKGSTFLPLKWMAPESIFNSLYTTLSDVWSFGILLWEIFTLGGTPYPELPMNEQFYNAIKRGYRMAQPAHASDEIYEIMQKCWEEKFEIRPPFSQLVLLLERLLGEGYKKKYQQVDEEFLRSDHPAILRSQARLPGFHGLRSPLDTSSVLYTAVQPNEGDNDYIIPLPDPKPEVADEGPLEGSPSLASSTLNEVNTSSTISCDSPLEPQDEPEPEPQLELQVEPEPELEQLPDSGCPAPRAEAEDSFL
Sequence of CSF1R (P07333 20-972): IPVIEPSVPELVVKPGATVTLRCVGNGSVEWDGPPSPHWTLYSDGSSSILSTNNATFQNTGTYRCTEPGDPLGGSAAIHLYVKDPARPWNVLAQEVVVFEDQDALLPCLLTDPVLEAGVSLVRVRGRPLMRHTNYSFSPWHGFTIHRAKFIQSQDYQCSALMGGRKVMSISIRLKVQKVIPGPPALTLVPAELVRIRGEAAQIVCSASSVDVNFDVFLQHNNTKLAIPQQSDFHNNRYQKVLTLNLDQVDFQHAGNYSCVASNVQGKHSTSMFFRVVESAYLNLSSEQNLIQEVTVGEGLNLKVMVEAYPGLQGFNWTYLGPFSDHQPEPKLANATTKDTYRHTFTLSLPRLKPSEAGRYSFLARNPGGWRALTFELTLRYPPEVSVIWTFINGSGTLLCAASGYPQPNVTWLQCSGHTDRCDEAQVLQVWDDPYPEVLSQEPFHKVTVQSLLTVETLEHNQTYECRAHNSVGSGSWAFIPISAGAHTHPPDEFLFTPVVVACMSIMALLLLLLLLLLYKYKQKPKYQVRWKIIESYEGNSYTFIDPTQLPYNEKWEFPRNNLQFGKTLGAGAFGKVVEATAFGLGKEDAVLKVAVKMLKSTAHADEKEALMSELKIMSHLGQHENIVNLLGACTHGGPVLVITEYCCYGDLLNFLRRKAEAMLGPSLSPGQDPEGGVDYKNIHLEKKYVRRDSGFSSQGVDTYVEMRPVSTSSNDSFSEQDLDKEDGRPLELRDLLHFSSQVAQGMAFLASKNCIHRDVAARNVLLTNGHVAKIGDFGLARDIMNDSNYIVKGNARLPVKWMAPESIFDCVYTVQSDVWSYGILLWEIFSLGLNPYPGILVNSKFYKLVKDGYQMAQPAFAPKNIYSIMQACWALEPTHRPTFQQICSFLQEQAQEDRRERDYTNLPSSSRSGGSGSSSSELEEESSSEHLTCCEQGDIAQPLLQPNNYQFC
T2 sequence (P10721 26-976): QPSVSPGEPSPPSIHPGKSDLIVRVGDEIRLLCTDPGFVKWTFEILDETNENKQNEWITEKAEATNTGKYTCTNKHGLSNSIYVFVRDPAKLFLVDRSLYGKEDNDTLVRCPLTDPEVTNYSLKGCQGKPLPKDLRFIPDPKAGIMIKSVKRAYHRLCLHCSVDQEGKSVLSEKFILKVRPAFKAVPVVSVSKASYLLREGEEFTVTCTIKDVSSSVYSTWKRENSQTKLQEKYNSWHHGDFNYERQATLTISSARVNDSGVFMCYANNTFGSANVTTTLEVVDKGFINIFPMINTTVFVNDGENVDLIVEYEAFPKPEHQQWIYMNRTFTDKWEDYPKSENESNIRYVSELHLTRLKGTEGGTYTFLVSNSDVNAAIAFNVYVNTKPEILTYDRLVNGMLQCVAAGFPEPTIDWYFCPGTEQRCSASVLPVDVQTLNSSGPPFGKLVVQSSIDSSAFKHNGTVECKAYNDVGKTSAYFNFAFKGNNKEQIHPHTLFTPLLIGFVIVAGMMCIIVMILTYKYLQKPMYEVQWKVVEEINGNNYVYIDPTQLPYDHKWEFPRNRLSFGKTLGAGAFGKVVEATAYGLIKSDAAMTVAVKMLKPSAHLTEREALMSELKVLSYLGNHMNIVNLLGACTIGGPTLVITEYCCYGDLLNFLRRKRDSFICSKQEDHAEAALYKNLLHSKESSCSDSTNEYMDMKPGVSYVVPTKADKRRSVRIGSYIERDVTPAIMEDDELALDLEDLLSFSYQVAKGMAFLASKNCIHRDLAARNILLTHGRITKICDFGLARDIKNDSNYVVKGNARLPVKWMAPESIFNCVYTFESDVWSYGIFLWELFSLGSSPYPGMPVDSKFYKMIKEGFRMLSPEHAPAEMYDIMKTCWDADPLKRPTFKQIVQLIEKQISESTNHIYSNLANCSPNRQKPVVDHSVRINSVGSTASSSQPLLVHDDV

| Kd (CSF1R) [nM] | Kd (PDGFRβ) [nM] | Kd (KIT) [nM] | Kinase specificity S(10) [1, 2] | Kd (FLT3) [nM] | Kd (CSF1R; competition binding) [nM] | Kd (PDGFRβ; competition binding) [nM] | Kd (KIT; competition binding) [nM] | Kinase specificity S(10) [1, 4] | Kd (FLT3; competition binding) [nM] | SMILES | IC50 (M-NFS-60 cells; [3]) [nM] | IC50 (M-NFS-60 cells; M-NFS-60 cell proliferation) [nM] |
| --- | --- | --- | --- | --- | --- | --- | --- | --- | --- | --- | --- | --- |
|  |  |  |  |  | 5 to 20 | 500 to 2000 | 500 to 2000 | A (A≤0.01) | 1000 to 5000 | O[C@@H]1CCCC[C@H]1Nc1nc2ccc(Cc3cnc4cc(-n5nccn5)ccn34)cc2s1 [Example 215, (1R,2R)-2-((6-((7-(2H-1,2,3-triazol-2-yl)imidazo[1,2-a]pyridin-3-yl)methyl)benzo[d]thiazol-2-yl)amino)cyclohexanol] |  | 50 to 400 |
|  |  |  |  |  | 5 to 20 | ≤ 50 | ≤ 100 | B (0.01<B≤0.02) | ≤ 200 | C=Cc1cc(F)c2c(c1)ncn2Cc1ccc2nc(N[C@@H]3CCCC[C@H]3O)sc2c1 [Example 207, (1R,2R)-2-((6-((7-fluoro-5-vinyl-1H-benzo[d]imidazol-1-yl)methyl)benzo[d]thiazol-2-yl)amino)cyclohexanol] |  | ≤ 50 |
|  |  |  |  |  | 20 to 50 | 500 to 2000 | 500 to 2000 | A (A≤0.01) | 1000 to 5000 | CC(O)c1ccn2c(Cc3ccc4nc(N[C@@H]5CCCC[C@H]5O)sc4c3)cnc2c1 (stereo partly drawn) [Example 201, (1R,2R)-2-((6-((7-(1-hydroxyethyl)imidazo[1,2-a]pyridin-3-yl)methyl)benzo[d]thiazol-2-yl)amino)cyclohexanol] |  | > 1500 |
|  |  |  |  |  | ≤ 5 | ≤ 50 | ≤ 100 | C (C>0.02) | ≤ 200 | O[C@@H]1CCCC[C@H]1Nc1nc2ccc(Cn3cnc4cc(-c5cc[nH]n5)ccc43)cc2s1 [Example 211, (1R,2R)-2-((6-((5-(1H-pyrazol-3-yl)-1H-benzo[d]imidazol-1-yl)methyl)benzo[d]thiazol-2-yl)amino)cyclohexanol] |  | ≤ 50 |
|  |  |  |  |  | ≤ 5 | ≤ 50 | ≤ 100 | B (0.01<B≤0.02) | ≤ 200 | O[C@@H]1CCCC[C@H]1Nc1nc2ccc(Cn3cnc4cc(C5=CCOCC5)cc(F)c43)cc2s1 [Example 208, (1R,2R)-2-((6-((5-(3,6-dihydro-2H-pyran-4-yl)-7-fluoro-1H-benzo[d]imidazol-1-yl)methyl)benzo[d]thiazol-2-yl)amino)cyclohexanol] |  | ≤ 50 |

More lines, now with the values behind:

| SMILES | Kd (CSF1R) [nM] | Kd (PDGFRβ) [nM] | Kd (KIT) [nM] | Kinase specificity S(10) [1, 2] | Kd (FLT3) [nM] | Kd (CSF1R; competition binding) [nM] | Kd (PDGFRβ; competition binding) [nM] | Kd (KIT; competition binding) [nM] | Kinase specificity S(10) [1, 4] | Kd (FLT3; competition binding) [nM] | IC50 (M-NFS-60 cells; [3]) [nM] | IC50 (M-NFS-60 cells; M-NFS-60 cell proliferation) [nM] |
| --- | --- | --- | --- | --- | --- | --- | --- | --- | --- | --- | --- | --- |
| N#Cc1cnc2c(c1)ncn2Cc1ccc2nc(N[C@@H]3CCCC[C@H]3O)sc2c1 [Example 43, 3-((2-(((1R,2R)-2-hydroxycyclohexyl)amino)benzo[d]thiazol-6-yl)methyl)-3H-imidazo[4,5-b]pyridine-6-carbonitrile] | 5 to 20 | 50 to 500 | 100 to 500 | B (0.01<B≤0.02) | 1000 to 5000 |  |  |  |  |  | 50 to 400 |  |
| O[C@@H]1CCCC[C@H]1Nc1nc2ccc(Cn3cnc4cc(CN5CCOCC5)cnc43)cc2s1 [Example 82, (1R,2R)-2-((6-((6-(morpholinomethyl)-3H-imidazo[4,5-b]pyridin-3-yl)methyl)benzo[d]thiazol-2-yl)amino)cyclohexanol] | 5 to 20 | 50 to 500 | 500 to 2000 | A (A≤0.01) | 1000 to 5000 |  |  |  |  |  | 400 to 1500 |  |
| O[C@@H]1Cc2ccccc2[C@H]1Nc1nc2ccc(Cn3cnc4cc(Br)cnc43)cc2s1 [Example 42, (1R,2R)-1-((6-((6-bromo-3H-imidazo[4,5-b]pyridin-3-yl)methyl)benzo[d]thiazol-2-yl)amino)-2,3-dihydro-1H-inden-2-ol] | ≤ 5 | ≤ 50 | ≤ 100 | B (0.01<B≤0.02) | 1000 to 5000 |  |  |  |  |  | 50 to 400 |  |
| O[C@@H]1CCCC[C@H]1Nc1nc2ccc(Cn3cnc4cc(Br)ccc43)cc2s1 [Example 100, (1R,2R)-2-((6-((5-bromo-1H-benzo[d]imidazol-1-yl)methyl)benzo[d]thiazol-2-yl)amino)cyclohexanol] | 5 to 20 | 50 to 500 | 100 to 500 | A (A≤0.01) | 1000 to 5000 |  |  |  |  |  | 50 to 400 |  |
| COc1cc2c(cc1C#N)ncn2Cc1ccc2nc(N[C@@H]3CCCC[C@H]3O)sc2c1 [Example 65, 1-((2-(((1R,2R)-2-hydroxycyclohexyl)amino)benzo[d]thiazol-6-yl)methyl)-6-methoxy-1H-benzo[d]imidazole-5-carbonitrile] | 5 to 20 | > 2000 | 500 to 2000 | B (0.01<B≤0.02) | 1000 to 5000 |  |  |  |  |  | 50 to 400 |  |
| OCC1(CNc2nc3ccc(Cn4cnc5cccnc54)cc3s2)CCCCC1 [Example 76, (1-(((6-((3H-imidazo[4,5-b]pyridin-3-yl)methyl)benzo[d]thiazol-2-yl)amino)methyl)cyclohexyl)methanol] | ≤ 5 | ≤ 50 | ≤ 100 | C (C>0.02) | ≤ 200 |  |  |  |  |  | 50 to 400 |  |
| O=C1CCCC[C@H]1Nc1nc2ccc(Cn3cnc4cccnc43)cc2s1 [Example 54, (R)-2-((6-((3H-imidazo[4,5-b]pyridin-3-yl)methyl)benzo[d]thiazol-2-yl)amino)cyclohexanone] | 20 to 50 | 50 to 500 | 100 to 500 | A (A≤0.01) | > 5000 |  |  |  |  |  | 50 to 400 |  |
| COc1cc2c(cc1Br)ncn2Cc1ccc2nc(N[C@@H]3c4ccccc4C[C@H]3O)sc2c1 [Example 49, (1R,2R)-1-((6-((5-bromo-6-methoxy-1H-benzo[d]imidazol-1-yl)methyl)benzo[d]thiazol-2-yl)amino)-2,3-dihydro-1H-inden-2-ol] | 5 to 20 | 500 to 2000 | 500 to 2000 | A (A≤0.01) | 1000 to 5000 |  |  |  |  |  | 50 to 400 |  |
| COc1cc2ncn(Cc3ccc4nc(N[C@@H](C)C5CCCCC5)sc4c3)c2cc1OC [Example 33, (S)—N-(1-cyclohexylethyl)-6-((5,6-dimethoxy-1H-benzo[d]imidazol-1-yl)methyl)benzo[d]thiazol-2-amine] | 5 to 20 | ≤ 50 | ≤ 100 | C (C>0.02) | 200 to 1000 |  |  |  |  |  | 50 to 400 |  |

— patent publication US9938261B2, “Heterocyclic compounds and methods of use thereof” (AMBIT BIOSCIENCES CORPORATION, priority 2011, dated 2018)
